Assay results as given in patent US20260284005A1, “INHIBITING MITOGEN-ACTIVATED PROTEIN (MAP)/ERK KINASE (MEK)1 AND MEK2 AND RELATED METHODS OF TREATMENT” (priority 2023, published 2026).
Read-outs that look alike come from different tables or passages of the source.

How the values were obtained:
MIA PaCa-2 cells = assay: 3D-TGA; type: cell-based, human
A-427 cells = assay: 3D-TGA; type: cell-based, human; details: A-427, LUN, KRAS G12D
Experimental: (§1) Cells were seeded in 3D cultures in a black-walled, clear-bottom, non-tissue culture treated, 384-well plate (3000 cells per well) using a 1:1 mixture of BME and a custom media and grown in a humidified incubator with 5% CO2 and 5% O2, which approximates capillary levels for each gas, at 37° C. […] Cells were assessed for cell proliferation using EdU cell proliferation staining. […] Cells were permeabilized with 30 μL of filtered 0.5% Triton X-100 in PBS for 20 minutes at room temperature. Samples were washed twice gently with PBS. Cells were stained utilizing click-iT chemistry by adding 20 μL of staining cocktail containing 2 mM copper sulfate, 8 μM sulfo-Cy5-azide, and 20 mg/ml ascorbic acid in PBS and incubated 30-60 minutes at room temperature in dark. […] Plates were imaged with the Molecular Devices Pico ImageXpress. Images were segmented and percentage of cells with EdU incorporation was quantified to calculate antiproliferative effects of the drugs.
(§2) Five (5)-ethynyl-2′-deoxyuridine (EdU) data was represented as percentage EdU positive cells quantified by high content imaging from the Molecular Devices ImageXpress® Pico.

A549 cells = assay: 3D-TGA; type: cell-based, human; details: Homo sapiens; A549, LUN, KRAS G12S; read-out: IC50 in 3D-TGA, CDK-4-6 inhibitor alone
Experimental: as §1, §2

Calu-6 cells = assay: 3D-TGA; type: cell-based, human; details: Homo sapiens; Calu-6, LUN, KRAS Q61K; read-out: IC50 in 3D-TGA, CDK-4-6 inhibitor alone
Experimental: as §1, §2

HT-29 cells = assay: 3D-TGA; type: cell-based, human; details: Homo sapiens; HT-29, COL, BRAF V600E; read-out: IC50 in 3D-TGA, CDK-4-6 inhibitor alone
Experimental: as §1, §2

NCI-H508 cells = assay: 3D-TGA; type: cell-based; details: Homo sapiens
SK-CO-1 cells = assay: 3D-TGA; type: cell-based; details: Homo sapiens
LS411N cells = assay: 3D-TGA; type: cell-based; details: Homo sapiens, LS-411N
NCI-H358 cells = assay: 3D-TGA; type: cell-based, human
NCI-H1792 cells = assay: 3D-TGA; type: cell-based, human
NCI-H820 cells = assay: 3D-TGA; type: cell-based; details: Homo sapiens
NCI-H1975 cells = assay: 3D-TGA; type: cell-based; details: Homo sapiens
NCI-H1650 cells = assay: 3D-TGA; type: cell-based; details: Homo sapiens
NCI-H2172 cells = assay: 3D-TGA; type: cell-based; details: Homo sapiens
[1] = human, in vivo; cited from earlier work
[2] = in vivo
[3] = test system: ERK-induced transcription in Colon-26 tumors; assay: Colon-26 tumor RNA sequencing, ERK transcriptome; type: in vivo, BALB/c mice; details: 100 mg/kg BID PO, day 18, Colon-26
[4] = test system: tumor models (cell lines); assay: Humanized 3D tumor growth assay (3D-TGA), tumor model panel / other cell lines; type: cell-based, human; details: read-out: IC50 in 3D-TGA Ifebemetinib, KRAS G12D, agent alone
Text: The humanized 3D tumor growth assay (3D-TGA) is an extracellular matrix (ECM)-based, 3D tumor model that more faithfully mimics the human tumor microenvironment (TME) with the goal of improving translational fidelity to patients. See Casneuf T, et al., “Interleukin-6 is a potential therapeutic target in interleukin-6 dependent, estrogen receptor-α-positive breast cancer,” Breast Cancer (Dove Med Press). […] MEK inhibition in the 3D-TGA. […]
All cell lines were validated by IDEXX upon receipt and assay setup. See Appendix for full cell line list.
as §1, §2

AsPC-1 cells = assay: 3D-TGA; type: cell-based, human; details: read-out: IC50 in 3D-TGA Ifebemetinib; AsPC-1, PAN, KRAS G12D; agent alone
Experimental: as §1, §2

CL-40 cells = assay: 3D-TGA; type: cell-based, human; details: read-out: IC50 in 3D-TGA Ifebemetinib; CL-40, COL, KRAS G12D; agent alone
Experimental: as §1, §2

HCC-44 cells = assay: 3D-TGA; type: cell-based, human; details: read-out: IC50 in 3D-TGA Ifebemetinib; HCC-44, LUN, KRAS G12C; agent alone
Experimental: as §1, §2

HPAC cells = assay: 3D-TGA; type: cell-based, human; details: read-out: IC50 in 3D-TGA Ifebemetinib, PAN, KRAS G12D, agent alone
Experimental: as §1, §2

HPAF-II cells = assay: 3D-TGA; type: cell-based, human; details: read-out: IC50 in 3D-TGA Ifebemetinib, PAN, KRAS G12D, agent alone
Experimental: as §1, §2

LU99 cells = assay: 3D-TGA; type: cell-based, human; details: read-out: IC50 in 3D-TGA Ifebemetinib; LU99, LUN, KRAS G12C; agent alone
Experimental: as §1, §2

NCI-H2030 cells = assay: 3D-TGA; type: cell-based, human; details: read-out: IC50 in 3D-TGA Ifebemetinib; NCI-H2030, LUN, KRAS G12C; agent alone
Experimental: as §1, §2

NCI-H2122 cells = assay: 3D-TGA; type: cell-based, human; details: read-out: IC50 in 3D-TGA Ifebemetinib; NCI-H2122, LUN, KRAS G12C; agent alone
Experimental: as §1, §2

PANC-1 cells = assay: 3D-TGA; type: cell-based, human; details: read-out: IC50 in 3D-TGA Ifebemetinib; PANC-1, PAN, KRAS G12D; agent alone
Experimental: as §1, §2

Panc 10.05 cells = assay: 3D-TGA; type: cell-based, human; details: read-out: IC50 in 3D-TGA Ifebemetinib; Panc 10.05, PAN, KRAS G12D; agent alone
Experimental: as §1, §2

[5] = Homo sapiens, MIA PaCa-2, PAN, KRAS G12C, read-out: IC50 in 3D-TGA, CDK-4-6 inhibitor alone
[6] = Homo sapiens, read-out: IC50 in 3D-TGA, CDK-4-6 inhibitor alone

**Q.** With CCN1CCN(Cc2ccc(Nc3ncc(F)c(-c4cc(F)c5nc(C)n(C(C)C)c5c4)n3)nc2)CC1 [Abemaciclib, abemaciclib] as the compound, how does the IC50 (MIA PaCa-2 cells; [5]) read?
**A.** 1 µM

**Q.** And the IC50 (A-427 cells; [6])?
**A.** 0.1 to 0.5 µM

**Q.** What about the IC50 (A549 cells) of the same compound?
**A.** 0.1 to 0.5 µM

**Q.** And the IC50 (Calu-6 cells)?
**A.** 1 µM

**Q.** What about the IC50 (HT-29 cells) of the same compound?
**A.** 1 µM

**Q.** Which IC50 (MIA PaCa-2 cells; Homo sapiens, MIA PaCa-2, read-out: IC50 in 3D-TGA Afatinib) does the source give for CN(C)C/C=C/C(=O)Nc1cc2c(Nc3ccc(F)c(Cl)c3)ncnc2cc1O[C@H]1CCOC1 [Afatinib, afatinib] here?
**A.** 1 µM

**Q.** What about the IC50 (NCI-H508 cells; NCI-H508, read-out: IC50 in 3D-TGA Afatinib) of the same compound?
**A.** 0.5 to 1 µM

**Q.** And the IC50 (SK-CO-1 cells; SK-CO-1, read-out: IC50 in 3D-TGA Afatinib)?
**A.** 1 µM

**Q.** What about the IC50 (LS411N cells; read-out: IC50 in 3D-TGA Afatinib) of the same compound?
**A.** 1 µM

**Q.** And the IC50 (NCI-H358 cells; Homo sapiens, NCI-H358, read-out: IC50 in 3D-TGA Afatinib)?
**A.** 1 µM

**Q.** And the IC50 (NCI-H1792 cells; Homo sapiens, NCI-H1792, read-out: IC50 in 3D-TGA Afatinib)?
**A.** 1 µM

**Q.** And the IC50 (NCI-H820 cells; NCI-H820, read-out: IC50 in 3D-TGA Afatinib)?
**A.** 1 µM

**Q.** What about the IC50 (NCI-H1975 cells; NCI-H1975, read-out: IC50 in 3D-TGA Afatinib) of the same compound?
**A.** 1 µM

**Q.** What about the IC50 (NCI-H1650 cells; NCI-H1650, read-out: IC50 in 3D-TGA Afatinib) of the same compound?
**A.** 1 µM

**Q.** And the IC50 (NCI-H2172 cells; NCI-H2172, read-out: IC50 in 3D-TGA Afatinib)?
**A.** 1 µM

**Q.** What does the source list for C#Cc1cccc(Nc2ncnc3cc(OCCOC)c(OCCOC)cc23)c1 [Erlotinib, erlotinib]?
**A.** IC50 (MIA PaCa-2 cells; Homo sapiens, read-out: IC50 in 3D-TGA Erlotinib, MIA PACA-2, PAN, KRAS G12C, agent alone): 1 µM; IC50 (NCI-H508 cells; read-out: IC50 in 3D-TGA Erlotinib, NCI-H508, COL, BRAF G596R, agent alone): 1 µM; IC50 (SK-CO-1 cells; read-out: IC50 in 3D-TGA Erlotinib, SK-CO-1, COL, KRAS G12V, agent alone): 1 µM; IC50 (LS411N cells; read-out: IC50 in 3D-TGA Erlotinib, LS411N, COL, BRAF V600E, agent alone): 1 µM; IC50 (NCI-H358 cells; Homo sapiens, read-out: IC50 in 3D-TGA Erlotinib, NCI-H358, LUN, KRAS G12C, agent alone): 1 µM; IC50 (NCI-H1792 cells; Homo sapiens, read-out: IC50 in 3D-TGA Erlotinib, NCI-H1792, LUN, KRAS G12C, agent alone): 1 µM; IC50 (NCI-H820 cells; read-out: IC50 in 3D-TGA Erlotinib, NCI-H820, LUN, EGFR T790M, agent alone): 1 µM; IC50 (NCI-H1975 cells; read-out: IC50 in 3D-TGA Erlotinib, NCI-H1975, LUN, EGFR L858R, agent alone): 1 µM; IC50 (NCI-H1650 cells; read-out: IC50 in 3D-TGA Erlotinib, NCI-H1650, LUN, EGFR E746_A750 del, agent alone): 1 µM; IC50 (NCI-H2172 cells; read-out: IC50 in 3D-TGA Erlotinib, NCI-H2172, LUN, EGFR L858R, agent alone): 1 µM

**Q.** With CC(=O)c1c(C)c2cnc(Nc3ccc(N4CCNCC4)cn3)nc2n(C2CCCC2)c1=O [Palbociclib, palbociclib] as the compound, how does the IC50 (MIA PaCa-2 cells; [5]) read?
**A.** 1 µM

**Q.** What about the IC50 (A-427 cells; [6]) of the same compound?
**A.** 0.5 to 1 µM

**Q.** And the IC50 (A549 cells)?
**A.** 0.1 to 0.5 µM

**Q.** What about the IC50 (Calu-6 cells) of the same compound?
**A.** 1 µM

**Q.** And the IC50 (HT-29 cells)?
**A.** 1 µM

**Q.** For Cn1cnc2c(F)c(Nc3ccc(Br)cc3F)c(C(=O)NOCCO)cc21 [binimetinib], which half-lives [1] is on record?
**A.** 3.5 h

**Q.** Which half-lives per cycle [2] does the source give for O=C(c1ccc(F)c(F)c1Nc1ccc(I)cc1F)N1CC(O)([C@@H]2CCCCN2)C1 [cobimetinib] here?
**A.** ≤ 0.55

**Q.** For Cn1cnc2c(F)c(Nc3ccc(Br)cc3Cl)c(C(=O)NOCCO)cc21 [selumetinib], which “ERK transcriptome, 2 h vs 12 h post-dose” value [3] is on record?
**A.** sustained MAPK pathway suppression

**Q.** And the half-lives [1]?
**A.** 6.2 h

**Q.** For CC(=O)Nc1cccc(-n2c(=O)n(C3CC3)c(=O)c3c(Nc4ccc(I)cc4F)n(C)c(=O)c(C)c32)c1 [trametinib], which half-lives per cycle [2] is on record?
**A.** ≤ 0.25

**Q.** What does the source list for ifebemetinib?
**A.** IC50 ([4]; COLO 678, COL): > 1 µM; IC50 ([4]; T3M-10, LUN): > 1 µM; IC50 (MIA PaCa-2 cells; read-out: IC50 in 3D-TGA Ifebemetinib, MIA PaCa-2, PAN, KRAS G12C, agent alone): > 1 µM; IC50 (A-427 cells; read-out: IC50 in 3D-TGA Ifebemetinib, agent alone): > 1 µM; IC50 (AsPC-1 cells): > 1 µM; IC50 (CL-40 cells): > 1 µM; IC50 (HCC-44 cells): > 1 µM; IC50 (HPAC cells): > 1 µM; IC50 (HPAF-II cells): > 1 µM; IC50 (LU99 cells): > 1 µM; IC50 (NCI-H2030 cells): 0.5 to 1 µM; IC50 (NCI-H2122 cells): > 1 µM; IC50 (PANC-1 cells): > 1 µM; IC50 (Panc 10.05 cells): > 1 µM; IC50 (NCI-H358 cells; read-out: IC50 in 3D-TGA Ifebemetinib, NCI-H358, LUN, KRAS G12C, agent alone): > 1 µM; IC50 (NCI-H1792 cells; read-out: IC50 in 3D-TGA Ifebemetinib, NCI-H1792, LUN, KRAS G12C, agent alone): > 1 µM
